Test results from patent publication US9693828B2, “Composition comprising acetic anhydride and a gadolinium complex, and method for the use in hyperpolarisation in MRI analysis” (BRACCO IMAGING S.P.A., priority 2011, dated 2017).

What was measured:
[1] = DNP hyperpolarisation of acetic anhydride with Finlandic acid trityl radical, with or without gadolinium complex (solid state polarisation build up); assay type: physicochemical
Method: A stock solution of radical was prepared by dissolving Finlandic acid (2.7 mg, 2.6 μmol) in unlabeled acetic anhydride (22.2 mg) yielding a solution with a concentration of 105 μmol/g.

[2] = Dissolution and hydrolysis of hyperpolarised acetic anhydride, NMR time series of 1D spectra to follow signal decay; assay type: physicochemical
Method: A stock solution of radical was prepared by dissolving Finlandic acid (2.7 mg, 2.6 μmol) in unlabeled acetic anhydride (22.2 mg) yielding a solution with a concentration of 105 μmol/g. A part (2.1 mg) of this stock solution was mixed with 1,1′-^13C2 acetic anhydride (15 μl, 17.2 mg, 0.165 mmol) to make a 12.8 mM solution. […] The sample was dissolved in 5 ml water with added NaOH (12 M, 39 μl) and allowed to hydrolyze for 15 s and then neutralized by mixing with phosphate buffer (300 μl, 1M, pH 7.3) with addition of HCl (14 μl, 12M). The sample was transferred to an NMR spectrometer and the acquisition was started 30 s after the dissolution recording a time series of 1D spectra to follow signal decay.

[3] = 13C DNP, acetic anhydride/1,1'-13C2 acetic anhydride, Finlandic acid radical 12.5 mM, gadolinium complex added as labelled (none for acetic anhydride, Example 1), FIG. 1

Row | Compound | exponential time constant of hyperpolarisation [1, 3] [s] | hydrolysis of acetic anhydride at the start of the acquisition ([2]; 5 ml water with NaOH, 15 s hydrolysis, neutralized, acquisition 30 s after dissolution) | exponential time constant of hyperpolarisation ([1]; Example 5: 1,1'-13C2 acetic anhydride, Finlandic acid 12.8 mM, no gadolinium complex) [s] | T1 of the hydrolysis product ([2]; after dissolution in water/NaOH, hydrolysis 15 s, neutralization to pH 6.8, acquisition started 30 s after dissolution) [s]
1 | CCCCCCCCCCCCCCCCCCN(CCCCCCCCCCCCCCCCCC)C(=O)CN1CCN(CC(=O)[O-])CCN(CC(=O)[O-])CCN(CC(=O)[O-])CC1.[Gd+3] [Gadolinium complex II, [10-[2-(dioctadecylamino)-2-oxoethyl]-1,4,7,10-tetraazacyclododecane-1,4,7-triacetato(3-)]gadolinium, reference compound] | 690 |  |  | 
2 | CC(O)CN1CCN(CC(=O)[O-])CCN(CC(=O)[O-])CCN(CC(=O)[O-])CC1.[Gd+3] (stereo not shown) [Gadolinium complex III, [10-(2-hydroxypropyl)-1,4,7,10-tetraazacyclododecane-1,4,7-triacetato(3-)]gadolinium, reference compound] | 750 |  |  | 
3 | CC(=O)OC(C)=O [acetic anhydride] | 670 | complete | 525 | 
4 | CC(=O)O [hydrolysis product, acetic acid] |  |  |  | 45
5 | [[α1,α4,α7-tris[(phenylmethoxy)methyl]-1,4,7,10-tetraazacyclododecane-1,4,7,10-tetraacetato(4-)]gadolinate(1-)]hydrogen [Gadolinium complex I] | 690 |  |  | 
